Entries after “also recorded” stand apart in the source; their conditions may differ.
Assays:
[1] = tested on: freshly isolated MuSCs from aged C57BL/6JRj mice; assay: Ex vivo analysis of MuSCs cultured in myriocin containing medium; format: cell-based, mouse
Procedure: Ex vivo analysis of MuSCs. MuSCs were isolated as described above, and seeded in 96- or 48-well plates. The cells were incubated in 30 μM myriocin containing medium (Ham's F-10 nutrient mixture, FBS 20%, basic fibroblast growth factor 2.5 ng/mL, penicillin 100 U/mL, streptomycin 100 μg/mL) for 72 hours. PFA 4% was applied for 15 min, the cells were washed three times for 10 min with PBS, and were blocked in 2% BSA in PBS. The cells were then incubated in primary antibodies MYOD (1:50, LabForce) and MYOG (1:50, Santa Cruz) overnight at 4° C. Secondary antibodies were coupled with Alexa-488 or Alexa-568 fluorochromes (Life Technology) and mounted with Dako Mounting Medium. Leica DMI 4000 microscope was used to image the cells. Quantification of the MYOD+ and MYOG+ cell number was based on more than 500 cells per condition.

[2] = tested on: APPSwe-expressing C2C12 myoblasts; assay: Proteostat staining of APPSwe-expressing C2C12 myoblasts; format: cell-based, mouse; settings: 30 μM MYR for 24 h
Procedure: FIG. 16. Quantitative Proteostat signal normalized over the number of cells in human primary myoblasts from IBM donors (above) and APPSwe-expressing C2C12 myoblasts (below) decreases after treatment with 30 μM MYR for 24 h. Values are expressed as mean±s.e.m. ***P:0.001; ****P:0.0001. Differences between two groups were assessed using Student's two-tailed t-tests (error bars: 95% confidence intervals).

[3] = tested on: muscle stem cells (MuSCs); assay: MuSC count in muscle of treated aged mice (FACS, PAX7 immunostaining); format: in vivo, mouse
Source text: Muscle stem cells (MuSCs) are capable of giving rise to mature muscle fibers, and their regenerative capacity has been reported to be impaired upon aging. […] Consistent with this, PAX7 expression correlated negatively with the first PC of the ceramide synthetic pathway in both human (FIG. 3e) and mouse (FIG. 3f) skeletal muscle. To study whether increased Pax7 transcript abundance in skeletal muscle reflects elevated MuSC count, a7 integrin/CD34 double positive cells were isolated from the hind-limbs using fluorescence-activated cell sorting (FACS).
Stem cell isolation. Gastrocnemius, soleus, and quadriceps muscles from both hindlimbs were excised and transferred into PBS on ice. […] Stained cells were analyzed and sorted using the FACSAria II instrument (BD Biosciences). […]
Histology. […] Microscopy images of fluorescence from muscle fibers were analyzed using the ImageJ software. Centralized nuclei percent, minimal Feret diameter and cross-sectional area in TA muscles were determined using the ImageJ software quantification of laminin, dystrophin, and DAPI-stained muscle images from VS120-S6-W slides scanner (Olympus). […] The mean cross-sectional area of muscle fibers was calculated as the average cross-sectional area of 2,000 fibers per from sample. 7-8 mouse samples per condition were used for histological quantification of donor mice. […] For each quantification, 3 or more mice were used.

[4] = tested on: skeletal muscle of aged mice; assay: Proteostasis (A11 staining) in skeletal muscle of aged mice; format: in vivo, mouse
Procedure: FIG. 17. […] Values are expressed as mean±s.e.m. *P≤0.05. Differences between two groups were assessed using Student's two-tailed t-tests (error bars: 95% confidence intervals).

In the case of `CCCCCCC(=O)CCCCCCC=CCC(O)C(O)C(N)(CO)C(=O)O` (centres unmarked) [myriocin, 2-Amino-3,4-dihydroxy-2-(hydroxymethyl)-14-oxoicos-6-enoic acid], the MYOD protein level ([1]; 30 μM myriocin, 72 h, vs DMSO) is reported as “elevated”, the MYOG protein level ([1]; 30 μM myriocin, 72 h, vs DMSO) is reported as “elevated” and the “Ki67+ MuSC count” value ([1]; MuSCs from untreated aged mice, 72 h in myriocin containing medium vs DMSO) is reported as “higher”. The “Proteostat signal normalized over the number of cells” value [2] was “decreases”, the “number of PAX7+ muscle cells in TA tissue sections” value ([3]; aged myriocin treated mice) was “elevated number” and the “number of MuSCs in hindlimbs (a7 integrin/CD34 double positive cells, FACS)” value ([3]; young, aged, and aged myriocin treated mice) was “restored the MuSC pool of aged mice close to that of young mice”. The “proteostasis in skeletal muscle” value ([4]; aged mice treated with myriocin) was “improves proteostasis; also recorded: promoted proteostasis” and the “amyloid beta aggregates (A11 staining)” value ([4]; skeletal muscle of aged mice treated with myriocin) was “cleared amyloid beta aggregates”.

From patent US20220288004A1, “TREATMENT AND PREVENTION OF AGING RELATED-DISEASE AND/OR AGING BY THE INHIBITION OF SPHINGOLIPIDS” (ECOLE POLYTECHNIQUE FEDERALE DE LAUSANNE (EPFL), priority 2019, published 2022)
